Measurements published in patent publication US10323013B2, “Inhibitors of the IRE-1/XBP-1 pathway and methods of using thereof” (H. LEE MOFFITT CANCER CENTER AND RESEARCH INSTITUTE, INC., priority 2013, dated 2019).
Entries after “also recorded” stand apart in the source; their conditions may differ.

Tests used:
[1] = test system: XBP-1s expression in Mino cells; experiment: Inhibition of XBP-1s expression in Mino cells (immunoblots and densitometry); type: cell-based, human; settings: various doses, 24 h
Experimental: (§2) Protein concentrations were determined by BCA assays (Pierce). […] Proteins were transferred to nitrocellulose membranes, blocked in 5% non-fat milk (wt/vol in PBS), and immunoblotted with indicated primary antibodies and appropriate horseradish peroxidase-conjugated secondary antibodies. Immunoblots were developed using Western Lighting Chemiluminescence Reagent (Perkin-Elmer).

[2] = test system: XBP-1s expression in Jeko cells; experiment: Inhibition of XBP-1s expression in Jeko cells (immunoblots and densitometry); type: cell-based, human; settings: various doses, 24 h
Experimental: as §2

CLL-bearing Eμ-TCL1 mice = type: in vivo
Experimental: (B) CLL-bearing Eμ-TCL1 mice were intraperitoneally injected with DMSO (n=3) or B-I09 (50 mg/kg in DMSO, n=8) daily for the first 5 days weekly for three weeks. Blood was collected to measure lymphocyte numbers using a HemaTrue Hematology Analyzer (HESKA). Data were compared with lymphocyte counts prior to B-I09 injections, and plotted as mean±SEM. (C) Lymphocyte counts in the peripheral blood of B-I09-treated Eμ-TCL1 mice (n=8) were plotted as mean±SEM. […] (E) Splenocytes from DMSO- or B-I09-injected Eμ-TCL1 mice were stained with IgM-PE-Cy7, B220-FITC, CD5-APC, Annexin V-PE and 7-AAD. Gated IgM+/B220+/CD5+ splenic CLL cells were analyzed for Annexin V- and/or 7-AAD-positive populations. (F) Percentages of apoptotic cells in gated IgM^+/B220^+/CD5^+ CLL populations from spleens of DMSO-injected (n=3) or B-I09-injected (n=8) Eμ-TCL1 mice were plotted as mean±SEM. (G) Weight of DMSO-injected (n=3) or B-I09-injected (n=8) Eμ-TCL1 mice was plotted as mean±SD. (H) Paraffin-embedded sections of indicated organs from Eμ-TCL1 mice receiving three weeks of injections with DMSO or B-I09 were stained with hematoxylin and eosin.
Tumor-bearing Eμ-TCL1 mice in which CLL cells comprise the majority of the lymphocytes in the peripheral blood (FIG. 33) were selected. The mice were then treated with 50 mg/kg B-I09 on the first five days of each week for three weeks. […] Since CLL cells proliferate in secondary lymphoid organs and are protected from cell death through interactions with microenvironments, whether B-I09 has an effect on CLL cells residing in the spleen was evaluated.

[3] = Degradation (chemical stability) studies by HPLC/LCMS; type: physicochemical
Experimental: The degradation of analog 24 was plotted as a function of time upon exposure to FRET-suppression assay buffer at rt. Aliquots were partitioned with MeOH and injected onto LCMS (UV monitored at 320 nm) and peaks integrated relative to internal standard.
A 20 mM stock solution of B-I09 in DMSO was diluted to 0.5 mM in FRET assay buffer (20 mM HEPES, pH 7.5, 50 mM KOAc, 0.5 mM MgCl2, 3 mM DTT, 0.4% PEG) or cell culture media (RPMI supplemented with 10% fetal bovine serum). The FRET assay buffer and cell culture media solutions were incubated at room temperature and 37° C., respectively. At various time points, a 50 μL aliquot of each solution was added to 50 μL of methanol and the mixture analyzed by analytical reverse-phase HPLC (C18 4 mm×150 mm column, 1 mL/min flow rate) with acetonitrile/water (0.1% formic acid) as eluent. Absorbance was read at 320 nm and the degradation product (aldehyde) was identified by LCMS and co-injection with pure synthetic sample. Degradation studies were carried out in duplicate and data points reported as the mean of two values.

XBP-1 mRNA splicing = XBP-1 mRNA splicing by RT-PCR; type: cell-based; settings: human WaC3 CLL cells, 24 h
Source text: Total RNA was isolated using TRIzol reagent (Invitrogen). Complementary DNA was synthesized from RNA using Superscript II reverse transcriptase (Invitrogen).

XBP-1s expression = experiment: Inhibition of XBP-1s expression in LPS-stimulated mouse B cells (immunoblots); type: cell-based; settings: for inhibition of XBP-1s expression (in words): LPS 48 h, then inhibitor 20 μM for 24 h (Example 3 prints 20 mM); for inhibition of XBP-1 expression (in words): inhibitor 50 μM (b479 prints 50 mM), also Eμ-TCL1 CLL and WaC3 cells
Experimental: The protein concentrations of the supernatants were determined by BCA assay (Pierce). […] Proteins were transferred to nitrocellulose membranes, blocked in 5% milk (wt/vol in PBS), and immunoblotted with the indicated antibodies and appropriate horseradish peroxidase-conjugated secondary antibodies. Following multiple washes in PBS, the blots were developed using Western Lighting Chemiluminescence Reagent (Perkin-Elmer).
as §2

[4] = Pharmacokinetics of B-I09 in mouse plasma; type: in vivo; settings: 50 mg/kg intraperitoneally
Experimental: In vivo pharmacokinetics studies were carried out at Agilux Laboratories, Inc. (Worchester, Mass.) using male CD-1 mice (Charles River Laboratories, Wilmington, Mass.). B-I09 was administered intraperitoneally at 50 mg/kg as a solution in DMSO to a group of 3 male CD-1 mice. Compound blood was collected via tail snip into calibrated microvette tubes containing K2EDTA at 0.25, 0.5, 1, 2, 4, 8, and 24 h post dosing. Blood samples were stored on wet ice until processed to plasma by centrifugation within 1 hour of collection. All plasma samples were transferred to 96 well plates and stored at −80° C. until analyzed for B-I09 concentration via LC/MS/MS using a C18 RP-HPLC column (2.1×50 mm) and an acetonitrile:water (with 0.1% formic acid) mobile phase elution gradient. B-I09 was quantified by analysis with API 5500 TurbolonSpray positive ion MS detection. A non-compartmental model was applied to calculate pharmacokinetic parameters using WinNonlin 4.2 software.

Eμ-TCL1 CLL cells [5] = experiment: Cell proliferation XTT assay, Eμ-TCL1 CLL cells; type: cell-based, mouse
Experimental: (§1) Eμ-TCL1, MEC1, MEC2, WaC3, or primary human CLL cells were grown in 96-well cell culture plates overnight and then treated with fresh phenol red-free culture medium containing STF-083010 (50 μM), A-I06 (50 μM), A-I07 (50 μM) or fludarabine (30 μM). […] Briefly, 50 μl XTT labeling reagent was combined with 100 μl electron-coupling reagent, and the mixture was applied to each well of the 96-well plates. The test was based on cleavage of the yellow tetrazolium salt XTT by mitochondrial dehydrogenases of the metabolic active cells to form the orange formazan compound, which can be spectrophotometrically quantified at 492 nm using a BioTek microplate reader.

primary human CLL cells = experiment: Cell proliferation XTT assay, primary human CLL cells; type: cell-based; settings: 3 days
Experimental: as §1

[6] = Aqueous solubility (stated in words); type: physicochemical
phosphorylation of BTK = experiment: BCR activation and phosphorylation assay; type: cell-based; settings: wild-type and Eμ-TCL1 B cells, B-I09 20 μM, F(ab′)2 anti-mouse IgM
Experimental: XBP-1^WT/Eμ-TCL1 B cells, XBP-1^KO/Eμ-TCL1 B cells, B-I09-treated wild-type B cells or B-I09-treated Eμ-TCL1 B cells were suspended in RPMI serum-free media supplemented with 25 mM Hepes, stimulated with F(ab′)^2 fragments of the goat anti-mouse IgM antibody (20 μg/ml) (SouthemBiotech) for 2 min, and lysed immediately by adding ice-cold lysis buffer (50 mM Tris-HCl, pH 8.0; 150 mM NaCl; 1% Triton X-100; 1 mM EDTA) supplemented with protease inhibitor cocktail (Roche), 4 mM sodium pyrophosphate, 2 mM sodium vanadate and 10 mM sodium fluoride. The lysates were analyzed by SDS-PAGE. Phosphorylated proteins of interest were detected by immunoblots using phospho-specific antibodies.

recombinant hIRE-1 = recombinant hIRE-1 (Homo sapiens (Human), UniProt O75460); experiment: In vitro IRE-1 RNase FRET-suppression assay; type: biochemical
Sequence of recombinant hIRE-1 (O75460 547-977): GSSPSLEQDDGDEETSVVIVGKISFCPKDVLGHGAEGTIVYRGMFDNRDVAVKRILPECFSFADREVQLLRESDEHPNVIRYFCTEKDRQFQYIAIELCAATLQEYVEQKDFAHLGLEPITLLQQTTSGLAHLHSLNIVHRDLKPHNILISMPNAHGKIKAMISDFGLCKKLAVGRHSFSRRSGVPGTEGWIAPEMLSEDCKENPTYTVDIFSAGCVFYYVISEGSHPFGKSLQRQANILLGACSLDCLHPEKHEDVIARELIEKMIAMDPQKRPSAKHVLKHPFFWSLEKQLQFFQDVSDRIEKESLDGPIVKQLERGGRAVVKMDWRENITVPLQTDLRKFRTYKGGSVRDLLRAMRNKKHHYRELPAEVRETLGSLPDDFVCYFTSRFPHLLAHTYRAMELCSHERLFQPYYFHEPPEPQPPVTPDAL
Experimental: Fluorescence was read at various time points using a Biotek Synergy H1 plate reader with excitation and emission at 620 nm and 680 nm, respectively. […] All fluorescence readings were corrected using background values from wells containing only 120 μL of 50 nM XBP-1 RNA.
Fluorescence was read at various time points using a Biotek Synergy H1 plate reader with excitation and emission at 620 nm and 680 nm, respectively. […] All fluorescence readings were corrected using background values from wells containing only 120 mL of 50 nM XBP-1 RNA.

Eμ-TCL1 CLL cells [7] = experiment: Annexin V/DAPI flow cytofluorometry of cultured Eμ-TCL1 CLL cells; type: cell-based, mouse; settings: 50 μM or 100 μM for 24 h
Experimental: PBMCs were non-lethally obtained from mice following the submandibular bleed and RBC lysis (Qiagen). Nonspecific staining was first blocked for 30 min at 4° C. with 300 μl FBS per 1.0×10^6 cells. Cell surface staining was accomplished by 30-min incubation at 4° C. with 1 μl per 1.0×10^6 cells of the following anti-mouse antibodies: B220-Alexa488, CD19-APC-Cy7 (BD Pharmingen), IgM-Alexa568 (Invitrogen), CD5-APC (eBioscience) and CD138-PE (BD Pharmingen). Viability staining was accomplished using DAPI exclusion (10 μg/ml; 200 μl/1×10^6 cells) during acquisition. Apoptotic cells were detected by Annexin V-PE staining (BD Pharmingen). Acquisition of B-cell and CLL cell populations was performed on a LSRII cytometer (BD Biosciences) harboring a custom configuration for the H. Lee Moffitt Cancer Center & Research Institute, having multiple laser beams and detectors for excitation of various fluorophores and wide emission spectrum detection. Mid-range Spherotech FL1 fluorescent rainbow beads (BD Biosciences) were used to maintain consistent gains for all parameters across time points. Analysis of cytometry data was achieved using FlowJo software version 7.6.1 (Tree Star Inc.).

MEC2 cells = experiment: Cell proliferation XTT assay, MEC2; type: cell-based, human; settings: MEC2, 50 μM, first 48 h
Experimental: as §1

MEC1 cells = experiment: Cell proliferation XTT assay, MEC1; type: cell-based, human; settings: MEC1, 50 μM, first 48 h
Experimental: as §1

WaC3 cells = experiment: Cell proliferation XTT assay, WaC3; type: cell-based, human
Experimental: as §1

[8] = test system: Eμ-TCL1 mice with high CLL burden; type: in vivo; settings: A-I06 60 mg/kg i.p.
Experimental: Older Eμ-TCL1 mice (age >8 months) with high CLL burden in the peripheral blood were identified by examining the percentage of CLL cells in PBMCs. These mice then received intraperitoneal injections with A-I06 (60 mg/kg) dissolved in Cremophor® ELP (vehicle, Sigma). The progression of CLL was monitored by flow cytofluorometry.

Mino and Jeko cells = experiment: PARP cleavage by immunoblot in Mino and Jeko cells; settings: 50 mM (so in the source), 72 h
Experimental: Cells were lysed for the analysis of the indicated proteins by immunoblot.
as §2

MEC1 = experiment: cells; settings: Homo sapiens, MEC1, 48 h, read-out: GI50 (50% growth inhibition) concentration
WaC3 = experiment: cells; settings: Homo sapiens, 48 h, read-out: GI50 (50% growth inhibition) concentration
MEC2 = experiment: cells; settings: Homo sapiens, MEC2, 48 h, read-out: GI50 (50% growth inhibition) concentration

CC(=O)N1CCc2c(c(=O)oc3c(C=O)c(O)ccc23)C1 [Compound 29, 3-acetyl-8-hydroxy-5-oxo-2,3,4,5-tetrahydro-1H-chromeno[3,4-c]pyridine-7-carbaldehyde]
IC50 for blocking XBP-1s expression (in words) [1]: sub-micromolar range
IC50 for blocking XBP-1s expression (in words) [2]: sub-micromolar range

O=c1oc2c(C3OCCCO3)c(O)ccc2c2c1CNCC2 [Compound 28, 7-(1,3-dioxan-2-yl)-8-hydroxy-3,4-dihydro-1H-chromeno[3,4-c]pyridin-5(2H)-one]
apoptotic CD5+ CLL cells in the spleens (in words) (CLL-bearing Eμ-TCL1 mice; 50 mg/kg for three weeks vs DMSO): significant increase
CLL in the peripheral blood (in words) (CLL-bearing Eμ-TCL1 mice; 50 mg/kg i.p., first five days of each week for three weeks): Clear CLL regression
numbers of lymphocytes in the peripheral blood (in words) (CLL-bearing Eμ-TCL1 mice; after three weeks, normal range 500-5000 cells/μL): dropped close to the normal range
expression of XBP-1s in CLL cells from peripheral blood (in words) (CLL-bearing Eμ-TCL1 mice; immunoblots, B-I09-injected mice): inhibits the expression of XBP-1s
adverse effects or toxicity to mice (in words) (CLL-bearing Eμ-TCL1 mice; three weeks of treatment): no apparent adverse effects or toxicity
weight loss and histological changes to vital organs (liver, lungs, kidney, heart) (CLL-bearing Eμ-TCL1 mice; three weeks of treatment): no significant weight loss or apparent histological changes
fraction intact in cell culture media ([3]; 37° C., 24 h): greater than 50%
half-life at 0.5 mM ([3]; cell culture media, 37° C., read-out: t1/2 in cell culture media (converted)): ~1800 min
stability of 1,3-dioxane group in FRET-suppression assay buffer (in words) ([3]; room temperature, up to 48 h, listed as B-I09): remains completely intact; also recorded: stable
inhibition of splicing of XBP-1 mRNA (in words) (XBP-1 mRNA splicing): highly effective
inhibition of XBP-1s expression (in words) (XBP-1s expression): highly effective
peak concentration [4]: ~39 µM
time of peak concentration after administration [4]: 15 min
half-life ([4]; male, CD-1, ip): ~90 min
inhibition of mouse CLL cell growth (in words) (Eμ-TCL1 CLL cells [5]; 20 μM, 3 days): more effective than B-H09 and 4μ8C
inhibition of growth of CLL cells from human patients (in words) (primary human CLL cells; 20 μM): most potent inhibitor
solubility (in words) [6]: water soluble
BCR signaling, phosphorylation of BTK (in words) (phosphorylation of BTK): reduced phosphorylation of BTK

O=Cc1c(O)ccc2ccccc12 [A-I06, 2-hydroxynaphthaldehyde]
IRE-1 RNase inhibitory activity in FRET-suppression assay (in words) (recombinant hIRE-1): weaker activity
IC50 (recombinant hIRE-1; text values of Example 3, unit printed as mM, read-out: IC50 in FRET-suppression assay): 9.73 mM
apoptosis (in words) (Eμ-TCL1 CLL cells [7]): Increased apoptosis
growth inhibition (MEC2 cells): ~20%
inhibition of XBP-1s expression (in words) (XBP-1s expression): requires a higher concentration to achieve complete inhibition
inhibition of XBP-1 expression (in words) (XBP-1s expression): can suppress the expression of XBP-1
inhibition of XBP-1 expression (in words) (XBP-1s expression; listed as 2): strong inhibition
growth inhibition (MEC1 cells): ~20%
growth inhibition (Eμ-TCL1 CLL cells [5]; 50 μM, after 3 days): ~70%
cytotoxic effect (in words) (primary human CLL cells; primary human CLL cells, 50 μM): significant cytotoxic effect
growth response (in words) (WaC3 cells; WaC3, 50 μM, course of 4 days): gradually decreased growth
GI50 (WaC3 cells; read-out: GI50 (50% growth inhibition concentration), WaC3 cells, 48 h, XTT): ~50 µM
apoptosis of CD5+/B220+ CLL cells in treated mice (in words) [8]: increase of Annexin V+ apoptotic CD5+/B220+CLL cells
apoptosis of CD5−/B220+ B cells in treated mice (in words) [8]: does not induce CD5−/B220+ B cells to undergo apoptosis
CLL burden (in words) ([8]; Day 0, 1, 12, 13): reduced CLL burden

CN1CCc2c(c(=O)oc3c(C=O)c(O)ccc23)C1 [Compound 30, 8-hydroxy-3-methyl-5-oxo-2,3,4,5-tetrahydro-1H-chromeno[3,4-c]pyridine-7-carbaldehyde]
PARP cleavage (in words) (Mino and Jeko cells): induced PARP cleavage more strongly than either 21b or 5

C=CC(=O)N1CCC[C@@H](n2nc(-c3ccc(Oc4ccccc4)cc3)c3c(N)ncnc32)C1 [ibrutinib]
GI50 (MEC1): 10 to 20 µM
GI50 (WaC3): 10 to 20 µM
GI50 (MEC2): 10 to 20 µM
